Results: US12448352B2, “Beta adrenergic agonist and methods of using the same” (Curasen Therapeutics, Inc., priority 2019, dated 2025)

Experiments:
[1] = Rat pharmacokinetic study (plasma); format: in vivo, male SD rats
Procedure: (§1) The rat pharmacokinetics studies of exemplary compounds 03-3, 03-5, and 03-115 were conducted with male SD rats. These rats were typically about 6-8 weeks old, weighing 200 g to 300 g. Animals were fasted overnight and free access to food 4 hours after dosing. A required volume of vehicle was added to reach the target concentration of the test article and vehicle component to prepare for the dosing. The dosing vehicle was PEG400 or 30% PEG400 in saline for IV, or 0.5% methylcellulose in water for PO. For IV dosing, the animals were administered intravenously via tail vein. For PO dosing, the animals were administered via oral gavage. After dosing, blood sample was collected (˜0.2 mL per time point) through jugular vein or heart puncture. Blood of each sample was transferred into plastic micro centrifuge tubes containing EDTA-K2. Collection tubes with blood samples and anticoagulant were inverted several times for proper mixing of the tube contents and then placed on wet ice. The blood samples were centrifuged at 2000 g for 5 minutes at 4° C. to obtain plasma which was stored in a freezer at −75±15° C. prior to analysis. Samples were analyzed using LC-MS/MS. WinNonlin were used for pharmacokinetic calculations.

[2] = Plasma protein binding, equilibrium dialysis (human); format: in vitro ADME
Procedure: Preparation of 100 mM sodium phosphate and 150 mM NaCl buffer (PBS). A basic solution was prepared by dissolving 14.2 g/L Na2HPO4 and 8.77 g/L NaCl in deionized water and the solution could be stored at 4° C. for up to 7 days. An acidic solution was prepared by dissolving 12.0 g/L NaH2PO4 and 8.77 g/L NaCl in deionized water and the solution could be stored at 4° C. for up to 7 days. The basic solution was titrated with the acidic solution to pH 7.4 and store at 4° C. for up to 7 days. pH was checked on the day of experiment and was adjusted if outside specification of 7.4±0.1.
Thawing of the frozen plasma (stored at −80° C.). Frozen plasma was thawed immediately at room temperature. The plasma was centrifuged at 3,220 g for 10 minutes to remove clots and supernatant was collected into a fresh tube. The pH of the plasma was checked and recorded. Note: a). Only use plasma that has been thawed no more than twice since arrival. b). Only use plasma within the range of pH 7 to pH 8.
Preparation of working solutions. The working solutions of test compound and control compound ketoconazole were prepared in DMSO at the concentration of 200 μM. And then 3 μL of working solutions was removed to mix with 597 μL of rat plasma to achieve a final concentration of 1 μM (0.5% DMSO). Plasma samples were vortexed thoroughly.
Preparation of dialysis membranes. […]

[3] = Rat CNS exposure (plasma, CSF, brain); format: in vivo, male SD rats; settings: SC 1 mg/kg, 1.00 h
Procedure: as §1, with “These” for “The rat pharmacokinetics studies of exemplary compounds 03-3, 03-5, and 03-115 were conducted with male SD rats. These”
For CSF sampling, after anesthesia, the foramen magnum was exposed, and a syringe was used with a venoclysis needle to sample the CSF. The CSF samples were stored in polypropylene tubes, then stored in a freezer at −75±15° C. prior to analysis.
For brain sampling, the rats were fully exsanguinated by using a risen of carbon dioxide prior to brain collection. Brain samples were then collected at adopted time point, quick frozen and kept at −75±15° C. All brain samples were weighted and homogenated with PBS by brain weight (g) to PBS volume (mL) ratio 1:3 before analysis. The actual concentration is the detected value multiplied by the dilution factor.

[4] = Mouse pharmacokinetic study (plasma); format: in vivo, male C57BL/6J mice; settings: PO 5 mg/kg
Procedure: as §1
Mouse pharmacokinetics studies of exemplar compounds 03-3 and 03-5 were conducted substantially similarly to the rat pharmacokinetic studies, instead using male C57BL/6J mice. These mice were typically about 6-8 weeks old, weighing 20 g to 30 g. Animals were free access to food before dosing. Sample amount was ˜0.03 mL per time point and sample site was dorsal metatarsal or heart puncture.

SMILES: Cc1ncccc1[C@@H](O)CNC(C)(C)C [Compound 03-115]
- AUCInf ([1]; IV 1 mg/kg): 164 ng·h/mL
- C0 ([1]; IV 1 mg/kg): 512 ng/mL
- T1/2 ([1]; IV 1 mg/kg): 21.6 min
- Vss_obs ([1]; IV 1 mg/kg): 2.4 L/kg
- AUCInf ([1]; PO 5 mg/kg): 192 ng·h/mL
- Cmax ([1]; PO 5 mg/kg): 174 ng/mL
- MRTInf_obs ([1]; PO 5 mg/kg): 63.6 min
- T1/2 ([1]; PO 5 mg/kg): 96.6 min
- Tmax ([1]; PO 5 mg/kg): 15 min
- PPB (human), Percent of Unbound Fractions [2]: 100%
- Concentration, Brain [3]: 142 ng/g
- Concentration, CSF [3]: 56.2 ng/mL
- Concentration, Plasma [3]: 149 ng/mL
- AUCInf [4]: 3018 ng·h/mL
- Cmax [4]: 1751 ng/mL
- MRTInf_obs [4]: 108 min
- Tmax [4]: 30 min
